From article PMC10385824, “Antiproliferative and Tubulin-Destabilising Effects of 3-(Prop-1-en-2-yl)azetidin-2-Ones and Related Compounds in MCF-7 and MDA-MB-231 Breast Cancer Cells” (Pharmaceuticals, 2023)
Like-named read-outs stand apart in the source and are kept apart here.

Key:
[1] = test system: MDA-MB-231 human breast cancer cells; assay: Alamar Blue cell viability (antiproliferative) assay; format: cell-based; conditions: read-out: IC50
[2] = test system: K-562; assay: NCI-60 SRB screen, leukemia; format: cell-based, human; conditions: Homo sapiens, K562, 48 h; read-out: GI50
[3] = test system: MOLT-4; assay: NCI-60 SRB screen, leukemia; format: cell-based, human; conditions: Homo sapiens; MOLT-4; five dose 0.01–100 µM, 48 h; read-out: GI50
[4] = test system: A549/ATCC; assay: NCI-60 SRB screen, non-small cell lung cancer; format: cell-based, human; conditions: Homo sapiens; A549/ATCC; five dose 0.01–100 µM, 48 h; read-out: GI50
[5] = test system: EKVX; assay: NCI-60 SRB screen, non-small cell lung cancer; format: cell-based, human; conditions: Homo sapiens, five dose 0.01–100 µM, 48 h, read-out: GI50
[6] = test system: HOP-92; assay: NCI-60 SRB screen, non-small cell lung cancer; format: cell-based, human; conditions: Homo sapiens; HOP-92; five dose 0.01–100 µM, 48 h; read-out: GI50
[7] = test system: NCI-H460; assay: NCI-60 SRB screen, non-small cell lung cancer; format: cell-based, human; conditions: Homo sapiens; NCI-H460; five dose 0.01–100 µM, 48 h; read-out: GI50
[8] = test system: NCI-H552; assay: NCI-60 SRB screen, non-small cell lung cancer; format: cell-based, human; conditions: Homo sapiens; NCI-H552; five dose 0.01–100 µM, 48 h; read-out: GI50
[9] = test system: HCT-15; assay: NCI-60 SRB screen, colon cancer; format: cell-based, human; conditions: Homo sapiens; HCT-15; five dose 0.01–100 µM, 48 h; read-out: GI50
[10] = test system: KM12; assay: NCI-60 SRB screen, colon cancer; format: cell-based, human; conditions: Homo sapiens; KM12; five dose 0.01–100 µM, 48 h; read-out: GI50
[11] = test system: SW-620; assay: NCI-60 SRB screen, colon cancer; format: cell-based, human; conditions: Homo sapiens; SW-620; five dose 0.01–100 µM, 48 h; read-out: GI50
[12] = test system: SF295; assay: NCI-60 SRB screen, CNS cancer; format: cell-based, human; conditions: Homo sapiens, SF-295; SF295; five dose 0.01–100 µM, 48 h; read-out: GI50
[13] = test system: SNB-75; assay: NCI-60 SRB screen, CNS cancer; format: cell-based, human; conditions: Homo sapiens; SNB-75; five dose 0.01–100 µM, 48 h; read-out: GI50
[14] = test system: DU-145; assay: NCI-60 SRB screen, prostate cancer; format: cell-based, human; conditions: Homo sapiens; DU-145; five dose 0.01–100 µM, 48 h; read-out: GI50
[15] = test system: LOX IMVI; assay: NCI-60 SRB screen, melanoma; format: cell-based, human; conditions: Homo sapiens, five dose 0.01–100 µM, 48 h, read-out: GI50
[16] = test system: MALME-3M; assay: NCI-60 SRB screen, melanoma; format: cell-based, human; conditions: Homo sapiens; MALME-3M; five dose 0.01–100 µM, 48 h; read-out: GI50
[17] = test system: M14; assay: NCI-60 SRB screen, melanoma; format: cell-based, human; conditions: Homo sapiens; M14; five dose 0.01–100 µM, 48 h; read-out: GI50
[18] = test system: MDA-MB-435; assay: NCI-60 SRB screen, melanoma; format: cell-based, human; conditions: Homo sapiens; MDA-MB-435; five dose 0.01–100 µM, 48 h; read-out: GI50
[19] = test system: SK-MEL-2; assay: NCI-60 SRB screen, melanoma; format: cell-based, human; conditions: Homo sapiens; SK-MEL-2; five dose 0.01–100 µM, 48 h; read-out: GI50
[20] = test system: OVCAR-4; assay: NCI-60 SRB screen, ovarian cancer; format: cell-based, human; conditions: Homo sapiens; OVCAR-4; five dose 0.01–100 µM, 48 h; read-out: GI50
[21] = test system: OVCAR-8; assay: NCI-60 SRB screen, ovarian cancer; format: cell-based, human; conditions: Homo sapiens; OVCAR-8; five dose 0.01–100 µM, 48 h; read-out: GI50
[22] = test system: NCI/ADR-RES; assay: NCI-60 SRB screen, ovarian cancer; format: cell-based, human; conditions: Homo sapiens, five dose 0.01–100 µM, 48 h, read-out: GI50
[23] = test system: ACHN; assay: NCI-60 SRB screen, renal cancer; format: cell-based, human; conditions: Homo sapiens, five dose 0.01–100 µM, 48 h, read-out: GI50
[24] = test system: SN12C; assay: NCI-60 SRB screen, renal cancer; format: cell-based, human; conditions: Homo sapiens, five dose 0.01–100 µM, 48 h, read-out: GI50
[25] = test system: UO-31; assay: NCI-60 SRB screen, renal cancer; format: cell-based, human; conditions: Homo sapiens; UO-31; five dose 0.01–100 µM, 48 h; read-out: GI50
[26] = test system: MDA-MB-231/ATCC; assay: NCI-60 SRB screen, breast cancer; format: cell-based, human; conditions: Homo sapiens, 48 h
[27] = test system: MDA-MB-468; assay: NCI-60 SRB screen, breast cancer; format: cell-based, human; conditions: Homo sapiens; MDA-MB-468; five dose 0.01–100 µM, 48 h; read-out: GI50
[28] = test system: MCF-7; assay: cells; conditions: Homo sapiens, MCF7, 48 h
[29] = test system: NCI 60 human cancer cell line panel; assay: NCI 60 cell line screen (SRB), panel values

C=C(C)C1C(=O)N(c2cc(OC)c(OC)c(OC)c2)C1c1ccc(OC)cc1 (stereo not shown) [9h, 4-(4-Methoxyphenyl)-1-(3,4,5-trimethoxyphenyl)-3-(prop-1-en-2-yl)azetidin-2-one] gave an IC50 [1] of 31.3 nM, a GI50 [2] of 41 nM and a GI50 [3] of 39.7 nM. The GI50 [4] was 40.8 nM, the GI50 [5] was 81.3 nM and the GI50 [6] was 71.9 nM. The GI50 [7] was 35.6 nM, the GI50 [8] was 22.2 nM and the GI50 [9] was 40.6 nM. For the same compound, the GI50 [10] was 34 nM, the GI50 [11] was 42.4 nM and the GI50 [12] was 43 nM. For the same compound, the GI50 [13] was 38 nM, the GI50 [14] was 29.1 nM and the GI50 [15] was 38.8 nM. For the same compound, the GI50 [16] was greater than 100000 nM, the GI50 [17] was 221 nM and the GI50 [18] was 294 nM. For the same compound, the GI50 [19] was 18600 nM, the GI50 [20] was 39.1 nM and the GI50 [21] was 37.3 nM. It also gave a GI50 [22] of 21.3 nM, a GI50 [23] of 64.3 nM and a GI50 [24] of 50.3 nM. The GI50 [25] was 505 nM, the GI50 ([26]; MDA-MB-231/ATCC, five dose 0.01–100 µM, read-out: GI50) was 32.2 nM and the IC50 ([26]; MDA-MB-231, obtained from NCI, five concentrations 0.01–100 μM, read-out: Antiproliferative Activity IC50) was 31.3 nM. For the same compound, the GI50 [27] was 25 nM, the GI50 [28] was 36.8 nM and the CC50 ([29]; Homo sapiens, 60 cell, 9 h, read-out: LC50) was greater than 100000 nM. It also gave a GI50 ([29]; Homo sapiens, 60 cell, read-out: Mean GI50, mean over all NCI 60 cell lines) of less than 91.2 nM, a CC50 ([29]; Homo sapiens, 60 cell, read-out: Mean LC50) of 87100 nM and an IC (TGI (total growth inhibition)) ([29]; Homo sapiens, 60 cell, read-out: Mean TGI) of 15500 nM. The GI50 ([29]; read-out: Mean GI50, mean over all NCI 60 cell lines) was 58.9 nM.
